Here are results for one compound from PubChem BioAssay AID651977 (The Scripps Research Institute Molecular Screening Center, 2013).

Usually IC50 stands for the concentration at which inhibition is half-maximal.

The target in this experiment is Steroidogenic factor 1 (Homo sapiens) (UniProt Q13285). Briefly: dose-dependent inverse agonism at SF1 – cell-based, luminescence, dose response, selectivity assay for LRH-1 inverse agonist project, late-stage follow-up (AID 651977). The settings on record: SF1 cell-based luciferase reporter. (In general: In a reporter assay the amount or activity of a reporter protein is the signal.)

Calls of active or inactive are those of the source. How the calls were made is not given here. Some results are limits rather than exact numbers.

Steroidogenic factor 1 (Homo sapiens), sequence (Q13285 whole entry, looked up): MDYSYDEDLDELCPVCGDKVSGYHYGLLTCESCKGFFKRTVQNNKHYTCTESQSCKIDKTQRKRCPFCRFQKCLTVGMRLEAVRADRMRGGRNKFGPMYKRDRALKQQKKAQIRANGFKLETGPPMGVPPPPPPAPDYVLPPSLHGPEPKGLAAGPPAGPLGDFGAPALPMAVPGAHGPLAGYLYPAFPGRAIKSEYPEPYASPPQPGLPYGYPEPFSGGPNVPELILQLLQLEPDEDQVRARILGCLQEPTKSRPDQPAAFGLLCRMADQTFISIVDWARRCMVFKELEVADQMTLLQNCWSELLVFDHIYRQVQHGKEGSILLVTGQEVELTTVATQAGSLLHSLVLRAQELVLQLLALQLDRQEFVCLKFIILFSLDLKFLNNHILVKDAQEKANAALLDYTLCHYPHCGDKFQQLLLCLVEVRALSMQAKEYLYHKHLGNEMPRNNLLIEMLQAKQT

With `CCc1cc(=O)[nH]c(SCC(=O)Nc2ccc3c(c2)OCCO3)n1`, the IC50 was > 35.9 µM (inactive).
